Like-named read-outs stand apart in the source and are kept apart here.
Legend:
[1] = test system: mutant IDH1 (mIDH1); conditions: cited from earlier work
[2] = test system: mIDH1-driven gliomas; conditions: some model systems; D. Rohle et al. 2013; cited from earlier work
[3] = test system: mutant IDH2 (mIDH2); conditions: cited from earlier work
[4] = test system: mIDH1 cells; conditions: in vitro; R. J. Molenaar et al. 2015; cited from earlier work
[5] = test system: 2HG production; assay: animal or person; conditions: po, read-out: Inhibition of 2HG production within the brain tumors
Method: Ivosidenib was orally dosed at 150 mg/kg, twice daily, for Groups 3-5.

[6] = test system: mutant IDH1 proteins; conditions: cellular assays; cited from earlier work
[7] = test system: mutant IDH1 proteins; conditions: biochemical assays; cited from earlier work

Cc1ccccc1C(C(=O)NC1CCCCC1)N(C(=O)Cn1ccnc1C)c1cccc(F)c1 (stereo not shown) [AGI-5198]
Inhibition of mutant IDH1 [1]: inhibit mutant IDH1 (mIDH1) | Effect on growth of mIDH1-driven gliomas [2]: can repress growth of mIDH1-driven gliomas in some model systems | Inhibition of mutant IDH2 [3]: not mutant IDH2 (mIDH2) | Sensitivity of treated mIDH1 cells to radiation therapy [4]: desensitized to radiation therapy

N#Cc1ccnc(N2C(=O)CC[C@H]2C(=O)N(c2cncc(F)c2)[C@H](C(=O)NC2CC(F)(F)C2)c2ccccc2Cl)c1 [Ivosidenib, (S)—N—((S)-1-(2-Chlorophenyl)-2-(3,3-difluorocyclobutylamino)-2-oxoethyl)-1-(4-cyanopyridin-2-yl)-N-(5-fluoropyridin-3-yl)-5-oxopyrrolidine-2-carboxamide]
inhibition at 150 mg/kg [5]: > 98% | Activity on mutant IDH1 proteins [6]: inhibitor of mutant IDH1 proteins | Activity on mutant IDH1 proteins [7]: inhibitor of mutant IDH1 proteins

Source: US11458127B2, “Methods of treating brain tumors using combination therapy” (SERVIER PHARMACEUTICALS LLC, priority 2017, dated 2022)
